Data on 24 compounds can be found in patent US20250333406A1, “SULFONYL CYCLIC DERIVATIVES, AND COMPOSITIONS AND METHODS THEREOF” (Lysoway Therapeutics, Inc., priority 2023, published 2025).

Molecules are shown by their SMILES. Bounds are passed on as bounds.

For orientation: EC50 means the concentration at which the effect is half-maximal.

The test system of the assay is TFEB. Kind of assay: TFEB Nuclear Translocation Assay. The format is cell-based. The conditions noted are these: read-out: EC50 of TFEB activation.
Consider `CC(C)S(=O)(=O)c1ccc(S(=O)(=O)n2nc(N3CCN(c4ncc(F)cn4)C[C@H]3C3CC3)c3c(Cl)cccc32)cc1` (single isomer, unassigned) [Compound 61], for which the EC50 was at most 1000 nM.

Turning to `CC(C)S(=O)(=O)c1ccc(S(=O)(=O)n2nc(N3CCN(c4ncc(F)cn4)C[C@H]3C(F)(F)F)c3c(Cl)cccc32)cc1` (single isomer, unassigned) [Compound 69], the EC50 was at most 1000 nM. With `CC(C)S(=O)(=O)c1ccc(S(=O)(=O)n2nc(N3CCN(C(=O)C(F)(F)F)C[C@H]3C(F)(F)F)c3c(Cl)cccc32)cc1` (single isomer, unassigned) [Compound 71], the EC50 was at most 1000 nM. To `CC(C)S(=O)(=O)c1ccc(S(=O)(=O)n2nc(N3CCN(c4ncc(F)cn4)C[C@H]3C(F)(F)F)c3c(F)cccc32)cc1` (single isomer, unassigned) [Compound 73] belongs at most 1000 nM; to `CC(C)S(=O)(=O)c1ccc(S(=O)(=O)n2nc(N3CC=C(Cl)C[C@H]3C(F)(F)F)c3c(Cl)cccc32)cc1` (single isomer, unassigned) [Compound 83], at most 1000 nM; to `CC(F)(F)c1ccc(S(=O)(=O)n2nc(N3CCN(c4ncc(F)cn4)C[C@@H]3C(F)(F)F)c3c(Cl)cccc32)cc1` (single isomer, unassigned) [Compound 107], at most 1000 nM. `CC(C)S(=O)(=O)c1ccc(S(=O)(=O)n2nc(N3CCC[C@H]3C(F)(F)F)c3c(Cl)cccc32)cc1` (single isomer, unassigned) [Compound 110]: the EC50 is at most 1000 nM. Turning to `CC(F)(F)c1ccc(S(=O)(=O)n2nc(N3CCN(c4ncc(F)cn4)C[C@@H]3C(C)(C)F)c3c(Cl)cccc32)cc1` (single isomer, unassigned) [Compound 122], the EC50 is at most 1000 nM. The figure for `CC(C)(C)S(=O)(=O)c1ccc(S(=O)(=O)n2nc(N3CCN(c4ncc(Cl)cn4)CC34CC4)c3c(Cl)cccc32)s1` [Compound 1, 1-[(5-tert-butylsulfonyl-2-thienyl)sulfonyl]-4-chloro-3-[7-(5-chloropyrimidin-2-yl)-4,7-diazaspiro [2.5]octan-4-yl]indazole] is at most 1000 nM; for `CC(C)S(=O)(=O)c1ccc(S(=O)(=O)n2nc(N3CCN(c4ncc(Cl)cn4)CC34CC4)c3c(Cl)cccc32)cc1` [Compound 2, 4-chloro-3-(7-(5-chloropyrimidin-2-yl)-4,7-diazaspiro [2.5]octan-4-yl)-1-((4-(isopropylsulfonyl)phenyl)sulfonyl)-1H-indazole] it is at most 1000 nM; for `CC(C)S(=O)(=O)c1ccc(S(=O)(=O)n2nc(N3CCN(c4ncc(F)cn4)CC34CC4)c3c(Cl)cc(F)cc32)cc1` [Compound 3, 4-chloro-6-fluoro-3-(7-(5-fluoropyrimidin-2-yl)-4,7-diazaspiro [2.5]octan-4-yl)-1-((4-(isopropylsulfonyl)phenyl)sulfonyl)-1H-indazole] it is at most 1000 nM. To `CC(C)S(=O)(=O)c1cccc(S(=O)(=O)n2nc(N3CCN(c4ncc(Cl)cn4)CC34CC4)c3c(Cl)cccc32)c1` [Compound 4, 4-chloro-3-[7-(5-chloropyrimidin-2-yl)-4,7-diazaspiro [2.5]octan-4-yl]-1-(3-isopropylsulfonylphenyl) sulfonyl-indazole] belongs at most 1000 nM. Regarding `CC(C)S(=O)(=O)c1ccc(S(=O)(=O)n2nc(N3CCN(c4ncc(Cl)cn4)CC3C3CC3)c3c(Cl)cccc32)s1` (stereo not drawn) [Compound 5, 4-chloro-3-[4-(5-chloropyrimidin-2-yl)-2-cyclopropyl-piperazin-1-yl]-1-[(5-isopropylsulfonyl-2-thienyl)sulfonyl]indazole], the EC50 is at most 1000 nM. The figure for `CC(C)S(=O)(=O)c1ccc(S(=O)(=O)n2nc(N3CCN(CC(F)(F)F)CC34CC4)c3c(Cl)cccc32)s1` [Compound 6, 4-chloro-1-[(5-isopropylsulfonyl-2-thienyl)sulfonyl]-3-[7-(2,2,2-trifluoroethyl)-4,7-diazaspiro [2.5]octan-4-yl]indazole] is at most 1000 nM.

With `CC(C)S(=O)(=O)c1ccc(S(=O)(=O)n2nc(N3CCOCC34CC4)c3c(Cl)cccc32)s1` [Compound 7, 4-[4-chloro-1-[(5-isopropylsulfonyl-2-thienyl)sulfonyl]indazol-3-yl]-7-oxa-4-azaspiro [2.5]octane], the EC50 was at most 1000 nM.

In the case of `CC(C)S(=O)(=O)c1ccc(S(=O)(=O)n2nc(N3CCC(=O)CC34CC4)c3c(Cl)cccc32)s1` [Compound 8, 4-[4-chloro-1-[(5-isopropylsulfonyl-2-thienyl)sulfonyl]indazol-3-yl]-4-azaspiro [2.5]octan-7-one], the EC50 was at most 1000 nM. The figure for `CC(C)S(=O)(=O)c1ccc(S(=O)(=O)n2nc(N3CCN(C(=O)C(F)(F)F)CC34CC4)c3c(Cl)cccc32)s1` [Compound 9, 1-[4-[4-chloro-1-[(5-isopropylsulfonyl-2-thienyl)sulfonyl]indazol-3-yl]-4,7-diazaspiro [2.5]octan-7-yl]-2,2,2-trifluoro-ethanone] is at most 1000 nM.

Regarding `CC(C)S(=O)(=O)c1ccc(S(=O)(=O)n2nc(N3CCN(c4ncc(F)cn4)CC34CC4)c3c(Cl)cccc32)cc1` [Compound 10, 4-chloro-3-[7-(5-fluoropyrimidin-2-yl)-4,7-diazaspiro [2.5]octan-4-yl]-1-(4-isopropylsulfonylphenyl) sulfonyl-indazole], the EC50 is at most 1000 nM. `CC(C)S(=O)(=O)c1ccc(S(=O)(=O)n2nc(N3CCC(F)CC34CC4)c3c(Cl)cccc32)s1` (stereo not drawn) [Compound 11, 4-chloro-3-(7-fluoro-4-azaspiro [2.5]octan-4-yl)-1-[(5-isopropylsulfonyl-2-thienyl)sulfonyl]indazole]: the EC50 was at most 1000 nM.

Take `CC(C)S(=O)(=O)c1ccc(S(=O)(=O)n2nc(N3CCC(F)(F)CC34CC4)c3c(Cl)cccc32)s1` [Compound 12, 4-chloro-3-(7,7-difluoro-4-azaspiro [2.5]octan-4-yl)-1-[(5-isopropylsulfonyl-2-thienyl)sulfonyl]indazole]: the EC50 is at most 1000 nM.

For `CC(C)S(=O)(=O)c1ccc(S(=O)(=O)n2nc(N3CCC(N(C)C)CC34CC4)c3c(Cl)cccc32)s1` (stereo not drawn) [Compound 13, 4-[4-chloro-1-[(5-isopropylsulfonyl-2-thienyl)sulfonyl]indazol-3-yl]-N, N-dimethyl-4-azaspiro [2.5]octan-7-amine], the EC50 is at most 1000 nM. As to `CC(C)S(=O)(=O)c1ccc(S(=O)(=O)n2nc(N3CCN(S(=O)(=O)C(F)(F)F)CC34CC4)c3c(Cl)cccc32)s1` [Compound 14, 4-chloro-1-[(5-isopropylsulfonyl-2-thienyl)sulfonyl]-3-[7-(trifluoromethylsulfonyl)-4,7-diazaspiro [2.5]octan-4-yl]indazole], the EC50 was at most 1000 nM.

`CC(C)S(=O)(=O)c1ccc(S(=O)(=O)n2nc(N3CCN(c4ncc(Cl)cn4)CC34CC4)c3c(F)cccc32)cc1` [Compound 15, 3-(7-(5-chloropyrimidin-2-yl)-4,7-diazaspiro [2.5]octan-4-yl)-4-fluoro-1-((4-(isopropylsulfonyl)phenyl)sulfonyl)-1H-indazole]: the EC50 was at most 1000 nM.

Take `CC(C)S(=O)(=O)c1ccc(S(=O)(=O)n2nc(N3CCN(c4ncc(F)cn4)CC34CC4)c3c(F)cccc32)cc1` [Compound 16, 4-fluoro-3-(7-(5-fluoropyrimidin-2-yl)-4,7-diazaspiro [2.5]octan-4-yl)-1-((4-(isopropylsulfonyl)phenyl)sulfonyl)-1H-indazole]: the EC50 is at most 1000 nM.
